Experimental data taken from patent US5652252A, “Benzocycloheptenes” (Merck Patent Gesellschaft Mit Beschrankter Haftung, priority 1992, dated 1997).
Where two headings read alike, the source gives them in different places.

Test system: Dukin-Hartley guinea pigs
Assay: Bronchodilating activity in vivo (Konzett and Rossler), histamine bronchospasm
Design: species or system guinea pig
Settings: Cavia porcellus, iv, effective dose for 50% inhibition, anaesthetized guinea pigs
Method: The bronchodilating activity was measured in vivo by the method of Konzett H. and Rossler R. (Arch. Exp. Pathol. Pharmak., 1940, 195, p. 71 to 74) and Duhault J. et al. (Arzneim. Forsch./Drug. res., 1987, 37, p. 1353 to 1362).
Measurement of the bronchodilating activity:
Dukin-Hartley guinea pigs (400-500 g) are prepared according to the methodology described by Konzett and Rossler. The animals are anaesthetized by an intraperitoneal injection of urethane (1.5 g/kg) and a tracheotomy is prepared for artificial respiration (45 cycles/min; respiratory volume 10 ml/kg).
The animal is connected to a respiratory pump, which is adjusted to deliver a volume of 1 ml per 100 g of body weight of the guinea pig. It is connected to a recorder via a pressure sensor.
A catheter is placed in the jugular for the I.V. injections.
An I.V. injection of gallamine and propanolol is carried out. After stabilizing the pulmonary pressure for 30 minutes, an I.V. injection of histamine is carried out every 10 minutes until reproducibility is achieved; at that point, the test product is injected 10 minutes after the last spasm.

[1] = 5 min, I.V. histamine tested 5 minutes after injection of the product, read-out: Bronchospam ED50 at 5 min
[2] = 0.25 h, I.V. histamine tested 15 minutes after injection of the product, read-out: Bronchospam ED50 at 15 min

Row | Structure (SMILES) | ED50 [1] [mg/kg] | ED50 [2] [mg/kg]
1 | CC1(C)C=C(c2cccc[n+]2[O-])c2cc(Cl)ccc2OC1 [Compound 91, 7-Chloro-3,3-methyl-(2-pyridyl N-oxide)-2,3-dihydro-1-benzoxepine] | 0.1 | 
2 | CC1(C)C=C(c2cccc[n+]2[O-])c2cc(C(F)(F)F)ccc2OC1 [Compound 100, 3,3-Dimethyl-5-(2-pyridyl N-oxide)-7-trifluoromethyl-2,3-dihydro-1-benzoxepine] | 0.069 | 0.101
3 | CC1(C)C=C(c2cccc[n+]2[O-])c2cc(C#N)ccc2OC1 [Compound 104, 7-Cyano-3,3-dimethyl-5-(2-pyridyl N-oxide)-2,3-dihydro-1-benzoxepine] | 0.038 | 0.21
4 | CC1(C)C=C(c2cccc[n+]2[O-])c2cc(C#N)ccc2CC1 [Compound 109, 8-Cyano-3,3-dimethyl-1-(2-pyridyl N-oxide)-4,5-dihydro-3H-benzo [f]cycloheptane] | 0.086 | 0.331
5 | CC1(C)C=C(c2cccc[n+]2[O-])c2cc(Cl)c(Cl)cc2OC1 [Compound 111, 7,8-Dichloro-3,3-dimethyl-5-(2-pyridyl N-oxide)-2,3-dihydro-1-benzoxepine] | 0.049 | 0.1
6 | CC1(C)C=C(c2cccc[n+]2[O-])c2cc(F)c(F)cc2OC1 [Compound 114, 7,8-Difluoro-3,3-dimethyl-5-(2-pyridyl N-oxide) -2,3-dihydro-1-benzoxepine] | 0.04 | 0.3
7 | Cc1cc2c(cc1C#N)C(c1cccc[n+]1[O-])=CC(C)(C)CO2 [Compound 118, 7-Cyano-3,3,8-trimethyl-5-(2-pyridyl N-oxide)-2,3-dihydro-1-benzoxepine] | 0.15 | 0.2
8 | Cc1cc2c(cc1C#N)OCC(C)(C)C=C2c1cccc[n+]1[O-] [Compound 119] | 0.31 | 0.53
